# Data: patent US7468391B2, “Methods for treating retinoid responsive disorders using selective inhibitors of CYP26A and CYP26B” (Allergan, Inc., priority 2003, dated 2008)
# Columns and labels:
# RAR α = molecular target: T1, RAR α (Homo sapiens, UniProt P10276); assay: RAR α Kd; assay type: binding; conditions: Table 3
# T1 sequence (P10276 1-462): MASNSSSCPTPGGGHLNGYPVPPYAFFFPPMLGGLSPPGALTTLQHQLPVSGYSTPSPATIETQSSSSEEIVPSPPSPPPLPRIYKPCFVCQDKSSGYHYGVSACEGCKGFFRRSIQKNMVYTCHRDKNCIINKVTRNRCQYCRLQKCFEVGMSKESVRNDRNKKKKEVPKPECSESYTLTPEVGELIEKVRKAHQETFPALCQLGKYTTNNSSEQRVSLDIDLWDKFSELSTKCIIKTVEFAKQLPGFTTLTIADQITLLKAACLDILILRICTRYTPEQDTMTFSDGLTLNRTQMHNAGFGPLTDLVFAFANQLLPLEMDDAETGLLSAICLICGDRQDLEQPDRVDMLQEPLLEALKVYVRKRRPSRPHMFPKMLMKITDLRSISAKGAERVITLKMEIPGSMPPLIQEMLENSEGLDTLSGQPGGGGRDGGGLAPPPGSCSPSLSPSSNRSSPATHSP
# [1] = tested on: hamster flank organ sebaceous gland; assay: Hamster flank organ sebaceous gland differentiation (model for acne); assay type: in vivo, male golden syrian hamsters; conditions: compared with 13-cis retinoic acid (30 mg/kg), FIG. 3
# Method: Differentiation of hamster flank organ sebaceous gland is a model system for development of acne. To determine the effectiveness of selective CYP26B inhibitors for treating acne, such inhibitors were tested in this model system. To confirm that this model system can predict the effectiveness of a compound in reducing acne, 13-cis retinoic acid (acutane) was used as a positive control.
# For the hamster model system, male golden syrian hamsters were fed LabDiet#5002 rodent diet and housed individually on a 14/10 hr light/dark cycle. For treatment, the animals were randomized according to body weight and they were also weighed at each treatment so that the drug doses could be adjusted accordingly. The animals were treated daily by oral gavage, 6 days/week for 4 weeks. At the end of treatments, the animals were sacrificed by carbon dioxide inhalation. The flank organs were then excised and spread on a small piece of index card which was placed in a histology cassette for fixation in 10% buffered formaldehyde. The specimen was divided into 5 equally spaced portions to make paraffin blocks and one 5-micrometer H&E sections was prepared from each block. The two sections that contained the most sebaceous glands were used to determine the average acini area of the flank organ. A video camera attached to a standard microscope with the 4× objective was used to capture the images of the sebaceous glands. Computer programs Videoshop and NIH Image 1.63 were used to quantify the acini areas. All the recognizable sebaceous glands in the two sections were analyzed and the means were derived for comparison among various treatments. In all studies, blood samples were also collected for determining the levels of serum triglyceride using a triglyceride GPO Trinder kit from Sigma Chemicals (St. Louis, Mo.).
# RAR β = molecular target: T2, RAR β (Homo sapiens, UniProt P10826); assay: RAR β Kd; assay type: binding; conditions: Table 3
# T2 sequence (P10826 1-455): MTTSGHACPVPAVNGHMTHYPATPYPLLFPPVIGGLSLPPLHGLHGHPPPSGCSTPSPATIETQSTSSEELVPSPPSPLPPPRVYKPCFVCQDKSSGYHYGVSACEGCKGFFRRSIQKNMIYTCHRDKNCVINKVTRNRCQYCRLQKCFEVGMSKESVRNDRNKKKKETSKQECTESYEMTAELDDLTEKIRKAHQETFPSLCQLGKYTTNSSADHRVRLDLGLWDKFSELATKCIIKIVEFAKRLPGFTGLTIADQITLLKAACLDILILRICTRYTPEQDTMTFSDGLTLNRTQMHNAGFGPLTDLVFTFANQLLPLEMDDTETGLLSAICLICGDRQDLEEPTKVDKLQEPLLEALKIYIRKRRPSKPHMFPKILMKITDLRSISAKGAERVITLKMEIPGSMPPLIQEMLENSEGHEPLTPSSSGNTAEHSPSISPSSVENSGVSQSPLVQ
Compound,Kd (RAR α),hamster flank sebaceous gland differentiation ([1]; 50 mg/kg),Kd (RAR β),hamster flank sebaceous gland differentiation ([1]; 12.5 mg/kg)
CN(C1CC1)C1CCC(C)(C)c2cc(C#Cc3ccc(C(C)(C)C(=O)O)cc3)ccc21 (stereo not drawn) [AGN 198790],> 10 µM,reduced hamster flank sebaceous gland differentiation at least as effectively as 13-cis retinoic acid,> 10 µM,–
CN(Cc1cccc(C#Cc2ccc(/C=C/C(=O)O)cc2)c1)C1CC1 [AGN 199713],> 10 µM,–,> 10 µM,reduced hamster flank sebaceous gland differentiation at least as effectively as 13-cis retinoic acid
